Source: patent US6495557B1, “Condensed thienopyrimidines with phosphodiesterase-v inhibiting action” (Merck Patent Gesellschaft mit beschraenkter Haftung, priority 1998, dated 2002)

melting point [°C]	SMILES
218	COc1ccc(CNc2nc(CCC(=O)O)nc3sc4ccccc4c23)cc1Cl [Example 2, 3-[4-(3-chloro-4-methoxybenzylamino)benzothieno[2,3-d]pyrimidin-2-yl]propionic acid]
203 to 204	COC(=O)c1ccc(-c2nc(NCc3ccc(OC)c(Cl)c3)c3c(n2)sc2ccccc23)cc1 [Example 3, methyl 4-[4-(3-chloro-4-methoxybenzylamino)-[1]benzothieno[2,3-d]pyrimidin-2-yl]benzoate]
